Where a name gives a salt, the structure may show the parent alone. Read-outs that look alike come from different tables or passages of the source. Some results are limits rather than exact numbers.

For one assay, the target named is human EP4 receptor (Homo sapiens (Human), UniProt P35408). Nature of the assay: Measurement of EP4 receptor binding affinity ([3H]PGE2 displacement, membrane fraction of Chem-1 cells). As for the experimental part:
(§1) With regard to EP3 and EP4 receptors, measurements of receptor binding affinity were carried out according to the following methods in the same manner as in Test example 1.
The membrane fraction was recovered on glass fiber filter paper (GF/B, available from Whatman PLC) pretreated with 0.3% polyethyleneimine by using a cell harvester (M30R, available from Brandel Inc.), and after washing with a buffer solution (50 mM HEPES-NaOH (pH 7.4), 500 mM NaCl, 0.1% BSA), radioactivity was measured with a liquid scintillation analyzer (2000CA, available from Packard). […] The dissociation constant (Kd value) was calculated by Scatchard analysis.

In another assay the target is human EP3 receptor (Homo sapiens (Human), UniProt P43115). Description: Measurement of EP3 receptor binding affinity ([3H]PGE2 displacement, membrane fraction of Chem-1 cells). As for the experimental part: as §1
The membrane fraction was recovered on glass fiber filter paper (GF/B, available from Whatman PLC) pretreated with 0.3% polyethyleneimine by using a cell harvester (M30R, available from Brandel Inc.), and after washing with a buffer solution (50 mM Tris-HCl (pH 7.4)), radioactivity was measured with a liquid scintillation analyzer (2000CA, available from Packard). […] The dissociation constant (Kd value) was calculated by Scatchard analysis.

In assay [1] the target is T1, human EP2 receptor (Homo sapiens (Human), UniProt P43116). Nature of the assay: Measurement of EP2 receptor binding affinity ([3H]PGE2 displacement, membrane fraction of HEK293 cells). As for the experimental part:
Measurement of EP2 receptor binding affinity was carried out according to the method of Abramovitz et al. (Biochimica et Biophysica Acta, 1483, 285 (2000)). […] The membrane fraction was recovered on glass fiber filter paper (GF/B, available from Whatman PLC) using a cell harvester (M30R, available from Brandel Inc.), and after washing with a buffer solution (10 mM MES-KOH (pH 6.0), 10 mM MgCl2), radioactivity was measured with a liquid scintillation analyzer (2000CA, available from Packard). […] The dissociation constant (Kd value) was calculated by Scatchard analysis.

For assay [2], the target named is T1, human EP2 receptor. Description: Measurement of EP2 agonist activity (cAMP amount in HEK 293 cells). In kind it is cell-based. As to conditions: cAMP increase in HEK 293 cells expressing human EP2 receptor, 30 minutes. As for the experimental part: Measurement of EP2 agonist activity was carried out according to the method of Wilson et al. (European Journal of Pharmacology, 501, 49 (2004)). HEK 293 cells (ES-562-C, available from Euroscreen S.A.) expressed human EP2 receptor were cultured in a MEM medium containing 10% FBS and seeded at 2×10^4 cells per each well of a 96-well plate. On the next day, the medium was replaced with serum-free MEM medium containing 3-isobutyl-1-methylxanthine (final concentration: 500 μM) and after culturing for 30 minutes, a test compound dissolved in dimethylsulfoxide was added followed by allowing to stand undisturbed in a carbon dioxide gas incubator. After 30 minutes, an amount of cAMP in the cells was measured with a cAMP Biotrak EIA System kit (available from GE Healthcare Bioscience).

human EP4 receptor, sequence (P35408 whole entry): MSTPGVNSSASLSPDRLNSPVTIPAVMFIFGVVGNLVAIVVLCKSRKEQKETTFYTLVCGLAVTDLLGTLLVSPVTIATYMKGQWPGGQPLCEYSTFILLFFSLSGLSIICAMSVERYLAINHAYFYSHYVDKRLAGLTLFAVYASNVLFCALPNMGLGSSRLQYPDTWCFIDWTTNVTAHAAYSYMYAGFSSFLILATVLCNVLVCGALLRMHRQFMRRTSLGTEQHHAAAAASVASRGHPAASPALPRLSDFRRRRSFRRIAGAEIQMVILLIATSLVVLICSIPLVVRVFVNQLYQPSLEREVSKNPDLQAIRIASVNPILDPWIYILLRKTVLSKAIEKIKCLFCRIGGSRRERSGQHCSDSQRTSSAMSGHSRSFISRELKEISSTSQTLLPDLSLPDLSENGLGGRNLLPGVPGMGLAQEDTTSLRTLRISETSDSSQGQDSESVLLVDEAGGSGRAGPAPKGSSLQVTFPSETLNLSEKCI
T1 sequence (P43116 whole entry): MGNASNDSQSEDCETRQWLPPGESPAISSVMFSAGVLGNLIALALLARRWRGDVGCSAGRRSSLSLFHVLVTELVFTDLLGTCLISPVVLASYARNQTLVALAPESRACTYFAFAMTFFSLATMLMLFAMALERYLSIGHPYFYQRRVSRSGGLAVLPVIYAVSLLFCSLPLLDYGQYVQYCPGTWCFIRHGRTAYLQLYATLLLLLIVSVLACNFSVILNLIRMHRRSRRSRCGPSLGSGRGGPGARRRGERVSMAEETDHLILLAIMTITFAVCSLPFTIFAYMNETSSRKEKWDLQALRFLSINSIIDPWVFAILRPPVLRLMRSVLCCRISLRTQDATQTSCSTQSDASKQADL
human EP3 receptor, sequence (P43115 whole entry): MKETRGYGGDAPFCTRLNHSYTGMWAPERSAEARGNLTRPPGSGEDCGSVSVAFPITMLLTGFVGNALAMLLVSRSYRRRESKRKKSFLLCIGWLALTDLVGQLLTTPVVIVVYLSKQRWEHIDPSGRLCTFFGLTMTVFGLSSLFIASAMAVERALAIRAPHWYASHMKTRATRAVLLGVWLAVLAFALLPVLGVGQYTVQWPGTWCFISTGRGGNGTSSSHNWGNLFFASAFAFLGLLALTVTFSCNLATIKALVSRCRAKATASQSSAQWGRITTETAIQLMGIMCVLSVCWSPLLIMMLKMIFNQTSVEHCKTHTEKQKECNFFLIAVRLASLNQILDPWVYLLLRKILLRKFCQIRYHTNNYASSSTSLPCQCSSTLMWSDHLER

Consider `O=C(O)CNc1cccc(CN(Cc2ccc(-c3nccs3)cc2)S(=O)(=O)c2cccnc2)n1` [Example 11, (6-{(Pyridin-3-ylsulfonyl)[4-(thiazol-2-yl)benzyl]aminomethyl}pyridin-2-ylamino)acetic Acid Trifluoroacetate], for which the results for the Ki on human EP4 receptor and on human EP3 receptor were 2800 nM and above 10 µM, respectively.
In the case of `O=C(O)CNc1cccc(CN(Cc2ccc(-c3nccs3)cc2)S(=O)(=O)c2ccccn2)n1` [Example 3], the Ki was 1.9 nM on human EP2 receptor [1] (PGE2 receptor selectivity, Table 4, read-out: EP2 receptor binding affinity Ki value); 1.9 nM on human EP2 receptor [1] ([3H]PGE2 10 nM, HEK293 membrane fraction, Table 2, read-out: Ki value of EP2 receptor binding affinity); 4800 nM at human EP4 receptor ([3H]PGE2 1 nM, Chem-1 membrane fraction, Table 4); above 10 µM at human EP3 receptor ([3H]PGE2 2 nM, Chem-1 membrane fraction, Table 4). On human EP2 receptor [2], the EC50 is 0.45 nM.
For `O=C(O)CNc1cccc(CN(Cc2ccc(-c3nccs3)cc2)S(=O)(=O)c2ccc(F)cc2)n1` [Example 4, (6-{(4-Fluorobenzenesulfonyl)[4-(thiazol-2-yl)benzyl]aminomethyl}pyridin-2-ylamino)acetic Acid], the results for the inhibitory constant (Ki) at human EP2 receptor [1] (read-out: Ki value of EP2 receptor binding affinity), at human EP4 receptor and on human EP3 receptor were 2.8 nM, 2900 nM and above 10 µM, respectively. The molecule further came in with an EC50 at human EP2 receptor [2] of 0.29 nM.

Broadly, the Ki is the equilibrium dissociation constant of an inhibitor or competing ligand from its target. One may read the EC50 as the concentration needed to bring the measured effect to its halfway point.

Values taken from patent publication US8685986B2, “Medical composition for treatment or prophylaxis of glaucoma” (Ube Industries, Ltd., priority 2009, dated 2014).
